Peptide text beside a SMILES is read from it. * marks the point of attachment. X1 = C=CC(=O)NCCCCC(NC(=O)OCc1ccccc1)C(=O)N1CCN(C(=O)C(CCC(=O)*)NC(=O)c2cccc3ccccc23)CC1
Target: T1, Recombinant human TG2 (Homo sapiens, UniProt P21980)
T1 construct: GST (with PSP protease site, plasmid pGST-PSP-rhTG2) (N, cleaved yes); made in house; host or cells: E. coli (BL21)
T1 sequence (P21980 1-687): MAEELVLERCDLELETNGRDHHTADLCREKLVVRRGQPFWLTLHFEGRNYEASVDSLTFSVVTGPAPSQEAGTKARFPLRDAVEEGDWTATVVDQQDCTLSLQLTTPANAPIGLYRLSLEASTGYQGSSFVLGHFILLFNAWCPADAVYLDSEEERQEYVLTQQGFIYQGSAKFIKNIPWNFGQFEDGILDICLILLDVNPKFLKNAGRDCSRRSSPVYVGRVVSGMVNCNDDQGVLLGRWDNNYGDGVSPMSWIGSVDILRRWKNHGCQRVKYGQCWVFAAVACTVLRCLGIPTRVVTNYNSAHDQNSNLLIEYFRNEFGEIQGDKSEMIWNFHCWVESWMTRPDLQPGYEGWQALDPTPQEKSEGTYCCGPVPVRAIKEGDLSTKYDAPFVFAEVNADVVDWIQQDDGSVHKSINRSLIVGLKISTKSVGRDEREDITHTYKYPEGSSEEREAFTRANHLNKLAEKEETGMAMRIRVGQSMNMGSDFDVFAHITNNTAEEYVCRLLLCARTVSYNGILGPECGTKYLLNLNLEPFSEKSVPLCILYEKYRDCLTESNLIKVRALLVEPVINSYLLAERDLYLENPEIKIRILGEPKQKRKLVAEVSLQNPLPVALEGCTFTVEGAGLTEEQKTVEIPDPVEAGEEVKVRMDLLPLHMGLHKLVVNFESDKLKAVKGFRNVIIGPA
Assay: rhTG2 inhibition assay, continuous chromogenic substrate AL5, Kitz and Wilson conditions
Format: biochemical
Conditions: for kinact / Ki: * compounds fitted to double reciprocal model, 25 °C, pH 6.9, 100 µM AL5; for kinact/KI: * double reciprocal model, ** lowest concentrations of saturation plot fitted to a linear model; for Ki: irreversible inhibition
From the text: Relative to the original scaffold, we expected the potency of these novel chemical biology tools to decrease slightly, due to the additional bulk incorporated on the glutamate sidechain. Although we expected the sidechain moiety to be directed into bulk solvent, we were concerned that its mass and charge would disfavor the binding interaction. Therefore, we kinetically characterized these probes as rigorously as possible, in order to determine their relative affinity and reactivity. For most inhibitors we have made, including the parent inhibitor AA9 (Figure 1), we have been able to measure kinetic parameters under Kitz and Wilson conditions. This experimental approach is based on the use of a continuous activity assay and the measurement of first-order rate constants for the time-dependent inactivation of enzyme (see Figure 2A and Figures S1–S5 in Supplementary Materials). The dependence of these observed rate constants (kobs) on the inhibitor concentration divided by alpha ([I]/α) can then be fitted to a hyperbolic saturation model where the upper plateau represents the rate constant of inactivation (kinact), and the concentration providing half the rate constant of inactivation represents KI (Figure 2B). […] To compensate for this, the overall efficiency of the inhibitor (kinact/KI) can be derived from the slope of the linear region of the saturation plot (Figure 2C). To gauge the individual parameters, a double reciprocal fitting was also employed where KI can be calculated from the x-axis intercept and kinact can be calculated from the y-axis intercept (Figure 2D).
Recombinant human TG2 was expressed and purified using previously published protocols. The inhibition was monitored using a continuous chromogenic substrate AL5 [38] under Kitz and Wilson conditions. In brief, 125 µL of assay buffer composed of 111.11 mM MOPS, 15.56 CaCl2 pH 6.9 was added to a 1.5 mL Eppendorf tube to achieve final assay concentrations of 50 mM MOPS and […] CaCl2. To the tube was then added the respective concentration of inhibitor from an aqueous working stock (<5% DMSO final conditions). Various volumes of water were then added to ensure the final volumes were equal. The AL5 substrate was added to the Eppendorf tube as a 5 µL 5.56 mM solution in DMSO to obtain a final assay concentration of 100 µM. A 96-well polystyrene microplate then had 180 µL of the assay mixture added to it. The enzymatic reaction was finally initiated by addition of 20 µL 5 mU prediluted TG2 in assay buffer using a multichannel pipette. The reaction was monitored at 405 nm using a BioTek Synergy 4 plate reader for 20 min at 25 °C. A positive control with no inhibitor and a blank with no enzyme nor inhibitor were also included. The blank subtracted kinetic curves were then analyzed. The observed first-order rate constants of inactivation were gathered through a one-phase association model using the GraphPad software package. The rate constants were then fit to various models to elucidate the inhibition parameters. If saturation was achieved, they were fit to a saturation model versus the inhibitor concentration divided by alpha (where α=1+Substrate/Km ). A linear regression of the linear region of this saturation fitting was calculated to obtain a ratio of kinact/KI. A further double reciprocal model was used if saturation could not be observed due to the limitations in sensitivity of the assay or if solubility issues were present.

Compound	kinact [s⁻¹]	kinact/KI [M⁻¹ s⁻¹]	Ki [µM]
C=CC(=O)NCCCCC(NC(=O)OCc1ccccc1)C(=O)N1CCN(C(=O)C(CCC(=O)NCC(=O)NCC(=O)NCC(=O)NC(CC(=O)O)C(=O)NC(CC(=O)O)C(=O)NC(CC(=O)O)C(=O)O)NC(=O)c2cccc3ccccc23)CC1 (stereo not drawn) [Compound 18] (X1-GGGDDD-OH; configuration not given here)	0.0388	9380	4.1 ± 2.1
C=CC(=O)NCCCCC(NC(=O)OCc1ccccc1)C(=O)N1CCN(C(=O)C(CCC(=O)NCCCCCC(=O)NC(CC(=O)O)C(=O)NC(CC(=O)O)C(=O)NC(CC(=O)O)C(=O)O)NC(=O)c2cccc3ccccc23)CC1 (stereo not drawn) [Compound 17]	0.0065	6820	1 ± 0.3

Reference: publication PMC10454375, “Cell-Impermeable Inhibitors Confirm That Intracellular Human Transglutaminase 2 Is Responsible for the Transglutaminase-Associated Cancer Phenotype” (International Journal of Molecular Sciences, 2023)
